Tests used:
[1] = molecular target: Rat ACC1 (Rattus norvegicus, UniProt P11497); settings: literature value, Trumble et al. (1995); cited from earlier work
[2] = molecular target: T1, recombinant human ACC2 (Homo sapiens, UniProt O00763, V2141I); assay: ACC enzyme activity assay ([14C]bicarbonate fixation) with purified recombinant human ACC2; type: biochemical; settings: for Km: substrate varied, all other reagents saturating, 37° C.; for IC50: concentration dependent inhibition of recombinant human ACC2
T1 construct: To delete the NH2-terminus 148 amino acid of human ACC2; 6xHis (C); made in house; host or cells: Sf9 insect cells infected with recombinant baculovirus (pBlueBac-human-ACC2-Delta148-V5-Myc-His-WT); purified on a c-Myc-5 IgG column
Protocol: ACC enzymatic assays were carried out essentially according to Tanabe et al. (Tanabe et al., (1981) Methods Enzymol. 71 Pt C, 5–16) with modifications. […] Aliquots of 30 μl of 25 mM KH[^14C]O3 (specific activity 1.3 μCi/μmol, final KH[^14C]O3, concentration 5 mM) was then added to the mixture to initiate the reaction which was carried out for 10 min at 37° C. At the end, the reactions were quenched with 50 μl 2 N HCl and the vials were heated for 2 hours at 80° C. to remove excess bicarbonate as ^14CO2. Scintillant was then added and the acid-stable malonyl CoA remaining in the vial was counted in a scintillation counter. ACC specific activities were expressed as nmol/min/mg protein.

[3] = tested on: Rat ACC2; settings: Trumble et al. (1995), cited from earlier work; for IC50: literature value for rat ACC2 enzyme

T1 sequence (O00763 149-2458 V2141I): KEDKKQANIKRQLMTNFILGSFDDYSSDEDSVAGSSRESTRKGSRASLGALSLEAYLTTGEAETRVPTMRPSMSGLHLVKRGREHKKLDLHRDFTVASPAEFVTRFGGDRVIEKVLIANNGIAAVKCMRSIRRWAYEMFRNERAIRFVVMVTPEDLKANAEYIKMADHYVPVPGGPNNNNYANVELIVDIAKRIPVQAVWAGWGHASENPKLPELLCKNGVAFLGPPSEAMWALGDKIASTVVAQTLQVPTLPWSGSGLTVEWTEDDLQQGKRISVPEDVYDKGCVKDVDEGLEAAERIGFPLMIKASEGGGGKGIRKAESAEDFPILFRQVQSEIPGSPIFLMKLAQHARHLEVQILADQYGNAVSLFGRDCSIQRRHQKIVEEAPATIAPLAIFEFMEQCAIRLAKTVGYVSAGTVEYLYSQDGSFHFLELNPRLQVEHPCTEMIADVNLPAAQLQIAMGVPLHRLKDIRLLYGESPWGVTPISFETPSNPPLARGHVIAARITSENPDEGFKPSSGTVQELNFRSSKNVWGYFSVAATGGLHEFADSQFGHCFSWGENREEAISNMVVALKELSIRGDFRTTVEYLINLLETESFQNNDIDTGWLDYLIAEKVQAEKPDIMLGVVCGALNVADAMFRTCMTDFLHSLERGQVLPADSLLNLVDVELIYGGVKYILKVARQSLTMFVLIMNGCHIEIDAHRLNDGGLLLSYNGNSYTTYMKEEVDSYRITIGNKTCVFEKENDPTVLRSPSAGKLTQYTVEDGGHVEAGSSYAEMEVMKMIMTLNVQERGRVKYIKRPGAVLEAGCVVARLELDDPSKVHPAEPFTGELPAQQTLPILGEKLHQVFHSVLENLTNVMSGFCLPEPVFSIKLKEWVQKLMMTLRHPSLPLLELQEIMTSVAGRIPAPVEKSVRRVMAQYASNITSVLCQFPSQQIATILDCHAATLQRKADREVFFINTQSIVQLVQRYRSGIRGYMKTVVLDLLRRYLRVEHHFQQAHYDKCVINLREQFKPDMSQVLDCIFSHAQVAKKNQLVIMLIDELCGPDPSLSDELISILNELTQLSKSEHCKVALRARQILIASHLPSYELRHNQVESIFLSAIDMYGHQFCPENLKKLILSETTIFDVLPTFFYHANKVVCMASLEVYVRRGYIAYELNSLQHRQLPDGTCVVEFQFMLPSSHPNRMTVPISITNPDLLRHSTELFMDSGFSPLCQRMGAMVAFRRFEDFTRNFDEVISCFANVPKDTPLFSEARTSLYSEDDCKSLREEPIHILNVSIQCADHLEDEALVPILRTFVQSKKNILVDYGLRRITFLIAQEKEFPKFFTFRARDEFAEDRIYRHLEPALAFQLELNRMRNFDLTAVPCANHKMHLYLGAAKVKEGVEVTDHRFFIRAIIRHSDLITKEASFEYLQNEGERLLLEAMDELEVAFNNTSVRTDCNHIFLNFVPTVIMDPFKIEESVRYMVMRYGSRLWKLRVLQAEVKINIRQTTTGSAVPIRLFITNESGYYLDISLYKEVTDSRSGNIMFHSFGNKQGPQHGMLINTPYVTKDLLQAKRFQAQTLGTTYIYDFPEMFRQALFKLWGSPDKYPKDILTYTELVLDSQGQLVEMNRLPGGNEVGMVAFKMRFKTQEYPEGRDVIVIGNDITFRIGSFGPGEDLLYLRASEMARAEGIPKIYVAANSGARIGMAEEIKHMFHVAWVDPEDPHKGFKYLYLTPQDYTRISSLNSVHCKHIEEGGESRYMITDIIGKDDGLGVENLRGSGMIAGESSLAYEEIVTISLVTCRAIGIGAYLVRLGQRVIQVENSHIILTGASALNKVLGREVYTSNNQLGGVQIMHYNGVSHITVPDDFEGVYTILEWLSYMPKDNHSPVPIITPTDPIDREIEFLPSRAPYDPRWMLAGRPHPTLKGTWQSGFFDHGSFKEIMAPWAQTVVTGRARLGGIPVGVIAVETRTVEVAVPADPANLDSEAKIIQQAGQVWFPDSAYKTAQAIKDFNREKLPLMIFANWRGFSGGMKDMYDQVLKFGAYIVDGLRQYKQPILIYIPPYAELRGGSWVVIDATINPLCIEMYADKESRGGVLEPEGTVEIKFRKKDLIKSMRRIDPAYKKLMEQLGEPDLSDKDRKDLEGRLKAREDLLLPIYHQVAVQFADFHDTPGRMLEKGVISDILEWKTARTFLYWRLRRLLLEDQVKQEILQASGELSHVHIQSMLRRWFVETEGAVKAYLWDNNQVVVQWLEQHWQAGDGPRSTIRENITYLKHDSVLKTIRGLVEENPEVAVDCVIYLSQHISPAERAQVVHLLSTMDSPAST

Row | SMILES | Km [1] | Km [2] | Km ([3]; literature value) | IC50 [2] | IC50 [3] | further results
1 | Nc1ncnc2c1ncn2[C@@H]1O[C@H](COP(=O)(O)OP(=O)(O)OP(=O)(O)O)[C@@H](O)[C@H]1O [ATP] | 110 µM | 270 µM | 58 µM | – | – | –
2 | CC(=O)SCCNC(=O)CCNC(=O)[C@H](O)C(C)(C)COP(=O)(O)OP(=O)(O)OC[C@H]1O[C@@H](n2cnc3c(N)ncnc32)[C@H](O)[C@@H]1OP(=O)(O)O [Acetyl CoA, acetyl CoA] | 22 µM | – | 32 µM | – | – | –
3 | O=C(O)CC(O)(CC(=O)O)C(=O)O [Citrate] | – | – | – | – | – | Kact [1]: 3 mM; Kact ([3]; literature value): 2.1 mM
4 | O=C(O)O [HCO3^−, bicarbonate] | 2700 µM | 5000 µM | 2300 µM | – | – | –
5 | CC(C)(COP(=O)(O)OP(=O)(O)OC[C@H]1O[C@@H](n2cnc3c(N)ncnc32)[C@H](O)[C@@H]1OP(=O)(O)O)[C@@H](O)C(=O)NCCC(=O)NCCSC(=O)CC(=O)O [malonyl CoA] | – | – | – | 26.7 µM | 10.6 µM | –
6 | CCCCCCCCCCCCCCCC(=O)SCCNC(=O)CCNC(=O)[C@H](O)C(C)(C)COP(=O)(O)OP(=O)(O)OC[C@H]1O[C@@H](n2cnc3c(N)ncnc32)[C@H](O)[C@@H]1OP(=O)(O)O [palmitoyl CoA] | – | – | – | 4.4 µM | 2.2 µM | –
